This is an account of results in paper PMC12304301, “The Drosophila DEG/ENaC PPK12 is a Na^+ leak channel with a low Na^+ affinity” (Scientific Reports, 2025).

The target in experiment [1] is T1, PPK12 (Drosophila melanogaster, UniProt Q9W250).
T1 construct: cRNA expressed alone in Xenopus laevis oocytes; DEG/ENaC family members are trimers
T1 sequence (Q9W250 1-569): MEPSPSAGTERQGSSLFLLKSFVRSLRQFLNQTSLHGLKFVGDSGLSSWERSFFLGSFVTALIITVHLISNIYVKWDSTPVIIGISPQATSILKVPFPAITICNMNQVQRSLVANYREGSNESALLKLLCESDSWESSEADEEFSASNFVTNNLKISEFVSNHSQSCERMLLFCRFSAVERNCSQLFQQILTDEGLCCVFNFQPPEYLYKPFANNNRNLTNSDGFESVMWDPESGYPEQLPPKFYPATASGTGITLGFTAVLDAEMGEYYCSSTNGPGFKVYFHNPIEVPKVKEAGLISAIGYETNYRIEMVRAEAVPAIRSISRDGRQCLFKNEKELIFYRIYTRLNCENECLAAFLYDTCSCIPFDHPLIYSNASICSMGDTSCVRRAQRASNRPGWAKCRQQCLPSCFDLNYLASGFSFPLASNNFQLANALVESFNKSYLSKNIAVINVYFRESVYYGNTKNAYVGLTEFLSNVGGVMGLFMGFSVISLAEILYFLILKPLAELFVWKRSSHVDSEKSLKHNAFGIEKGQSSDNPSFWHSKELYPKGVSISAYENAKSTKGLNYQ
The experiment is described as follows: two-electrode voltage clamp of Xenopus oocytes, block of NMDG-sensitive constitutive current. The format is cell-based. In general terms: Two-electrode voltage clamp holds a large cell at a set potential and records current.

The target in experiment [2] is T1, PPK12. The experiment in a line: two-electrode voltage clamp of Xenopus oocytes, inhibition of total constitutive current. It is filed as cell-based. The settings on record: 140 mM NaCl bath, pH 7.4, -70 mV; only part of current carried by PPK12.

A word on the IC50: it is the concentration that gives 50% inhibition. High values mean a need for much substance, low ones inhibition by little substance. In the case of `N=C(N)NC(=O)c1nc(Cl)c(N)nc1N` [amiloride], at PPK12 [1], the concentration for half-maximal inhibition (IC50) was determined as 220 ± 20 µM.

With `NC(=NC(=O)c1nc(Cl)c(N)nc1N)NCc1ccccc1` [benzamil], the “% inhibition at 100 μM” value on PPK12 [2] was “amiloride, its analog benzamil, and diminazene–partially and reversibly inhibited constitutive currents in PPK12-expressing oocytes”.

Turning to `N=C(N)c1ccc(/N=N/Nc2ccc(C(=N)N)cc2)cc1` [diminazene], on PPK12 [1], it took 110 ± 10 µM to reach half-maximal inhibition (IC50).
